Reference: the OligoGym collection
After the bases stand the sugars from the 5' end (letter, count) and the backbone: PS all phosphorothioate, else s phosphorothioate and o phosphodiester by linkage. Methylation of C is not given here. e = 2'-O-(2-methoxyethyl) (MOE); k = constrained ethyl (cEt); d = 2'-deoxy (DNA); m = 2'-O-methyl

Target: HSD17B13
Conditions: ASO, HepaRG

Row | Sequence | target mRNA inhibition (1 µM) [%] | further results
1 | TATACTTTTCCGTCTC (sugars k3 d10 k3, PS) | 71 | target mRNA inhibition (0.02 µM): 0%; target mRNA inhibition (0.078 µM): 22%; target mRNA inhibition (0.313 µM): 44%; target mRNA inhibition (1.25 µM): 79%; target mRNA inhibition (5 µM): 83%
2 | TTTAACTTTCCTCCGT (sugars k3 d10 k3, PS) | 16 | –
3 | TATATACATCAACTCC (sugars k3 d10 k3, PS) | 61 | –
4 | GATAGATCTCTTCTCT (sugars k3 d10 k3, PS) | 0 | –
5 | AGGATTAATTCCCTTC (sugars k3 d10 k3, PS) | 19 | –
6 | CTCTATTGGTGTTTTA (sugars k3 d10 k3, PS) | 32 | –
7 | TAAAATAGGGTGCAGT (sugars k3 d10 k3, PS) | 58 | –
8 | TATGTGATTGAGTTCT (sugars kkdddddddddkekek, PS) | 23 | –
9 | TACGCATGCGCAGTGA (sugars k3 d10 k3, PS) | 60 | –
10 | TCCAATATATACTGAC (sugars k3 d10 k3, PS) | 72 | –
11 | CGCGAGATGATGTTGC (sugars k3 d10 k3, PS) | 53 | –
12 | GTGAAAGCCAACAGCG (sugars k3 d10 k3, PS) | 62 | –
13 | GTCATAAAGGTGGGAT (sugars k3 d10 k3, PS) | 28 | –
14 | AACAGTCTTAAACCTT (sugars kkdddddddddkekek, PS) | 37 | –
15 | TACAGTTCCTTTTCCT (sugars k3 d10 k3, PS) | 68 | –
16 | TATAACATGGCTGGCA (sugars k3 d10 k3, PS) | 33 | –
17 | AGCTTATCGAGTTTAG (sugars k3 d10 k3, PS) | 54 | –
18 | GTGCATCTTAAGATAC (sugars k3 d10 k3, PS) | 47 | –
19 | TAGAAACTGCTCCTCA (sugars k3 d10 k3, PS) | 32 | –
20 | TTTCUTATGTAATAGC (sugars k3 d1 m1 d8 k3, PS) | 50 | –
21 | TCATCCTTGGTGCTGA (sugars k3 d10 k3, PS) | 12 | –
22 | GAAGTGCTTTTGTGAT (sugars k3 d10 k3, PS) | 34 | –

Row | Sequence | target mRNA inhibition (1 µM) [%] | further results
23 | AGCTCCAGTAATGAGA (sugars k3 d10 k3, PS) | 26 | –
24 | AAGAGTCAGTATCCTC (sugars k3 d1 m1 d8 k3, PS) | 55 | –
25 | AGTAATTGCATCTGCT (sugars k3 d10 k3, PS) | 42 | –
26 | GTCTTAAACCTTCCCT (sugars kkdddddddddkekek, PS) | 28 | –
27 | ACTGCTGCTAGTGCCA (sugars k3 d1 m1 d8 k3, PS) | 64 | –
28 | TCTCTAAAGCAGGCTA (sugars k3 d10 k3, PS) | 60 | –
29 | GGCTGTAAGAGTCAGT (sugars k3 d10 k3, PS) | 88 | target mRNA inhibition (0.02 µM): 0%; target mRNA inhibition (0.078 µM): 0%; target mRNA inhibition (0.313 µM): 0%; target mRNA inhibition (1.25 µM): 51%; target mRNA inhibition (5 µM): 42%
30 | TTCATAGGGAGACCAT (sugars k3 d10 k3, PS) | 65 | –
31 | GATTGGAATGCTACTT (sugars kkdddddddddkekek, PS) | 53 | –
32 | CCAGATTGCACAAACC (sugars k3 d10 k3, PS) | 72 | target mRNA inhibition (0.02 µM): 0%; target mRNA inhibition (0.078 µM): 17%; target mRNA inhibition (0.313 µM): 51%; target mRNA inhibition (1.25 µM): 78%; target mRNA inhibition (5 µM): 92%
33 | ATGTAATAGGCAGTAA (sugars k3 d10 k3, PS) | 33 | –
34 | TTATGTGATTGAGTTC (sugars kkdddddddddkekek, PS) | 21 | –
35 | TGAAATTGATACACCA (sugars k3 d10 k3, PS) | 58 | –
36 | AAGATCGGCTGGATAT (sugars k3 d10 k3, PS) | 1 | –
37 | CTTAAACCTTCCCTGT (sugars k3 d10 k3, PS) | 22 | –
38 | ATGCTACTTGAACAGT (sugars k3 d10 k3, PS) | 47 | –
39 | GATACAAATTTATTGG (sugars k3 d10 k3, PS) | 33 | –
40 | CCTTCATCTAACTAAC (sugars k3 d10 k3, PS) | 30 | –
41 | AACAAGAGGATAGTCC (sugars k3 d10 k3, PS) | 54 | –
42 | TATACATCAACTCCTC (sugars k3 d10 k3, PS) | 39 | –
43 | TTCTTATGTAATAGCC (sugars k3 d9 k3 e1, PS) | 73 | target mRNA inhibition (0.02 µM): 17%; target mRNA inhibition (0.078 µM): 25%; target mRNA inhibition (0.313 µM): 57%; target mRNA inhibition (1.25 µM): 76%; target mRNA inhibition (5 µM): 85%
44 | CCTAGTTTTCGGCACT (sugars k3 d10 k3, PS) | 62 | –

Row | Sequence | target mRNA inhibition (1 µM) [%] | further results
45 | TGCTGCATTAATGCCA (sugars kkdddddddddkekek, PS) | 30 | –
46 | CAGGGTGGTAACGGTG (sugars k3 d10 k3, PS) | 55 | –
47 | TGTTATCTCAAGTCAG (sugars k3 d10 k3, PS) | 81 | target mRNA inhibition (0.02 µM): 0%; target mRNA inhibition (0.078 µM): 0%; target mRNA inhibition (0.313 µM): 31%; target mRNA inhibition (1.25 µM): 54%; target mRNA inhibition (5 µM): 81%
48 | TTGATCTCTTAGCTGT (sugars kkdddddddddkekek, PS) | 38 | –
49 | GTACACGAAGCCTGAA (sugars k3 d10 k3, PS) | 42 | –
50 | GAATCAAATAGATCCT (sugars k3 d10 k3, PS) | 46 | –
51 | AAATATAGAGGGTCCA (sugars k3 d10 k3, PS) | 0 | –
52 | AAAATGTCCTAGGATG (sugars k3 d10 k3, PS) | 0 | –
53 | TTTAATACGACTTCCT (sugars k3 d10 k3, PS) | 72 | target mRNA inhibition (0.02 µM): 0%; target mRNA inhibition (0.078 µM): 0%; target mRNA inhibition (0.313 µM): 27%; target mRNA inhibition (1.25 µM): 68%; target mRNA inhibition (5 µM): 83%
54 | GGAGTACTTCACAATT (sugars k3 d10 k3, PS) | 79 | target mRNA inhibition (0.02 µM): 20%; target mRNA inhibition (0.078 µM): 25%; target mRNA inhibition (0.313 µM): 42%; target mRNA inhibition (1.25 µM): 75%; target mRNA inhibition (5 µM): 87%
55 | GCTTAGTTCTTAATTA (sugars k3 d10 k3, PS) | 28 | –
56 | TGCAGCATTGATTCGA (sugars k3 d1 m1 d8 k3, PS) | 65 | –
57 | CCTTAACAAACCTCCA (sugars k3 d10 k3, PS) | 27 | –
58 | TATTCTGTGGCATGGC (sugars k3 d9 k3 e1, PS) | 74 | target mRNA inhibition (0.02 µM): 10%; target mRNA inhibition (0.078 µM): 0%; target mRNA inhibition (0.313 µM): 21%; target mRNA inhibition (1.25 µM): 55%; target mRNA inhibition (5 µM): 68%
59 | GCATUAATGCCACCCT (sugars k3 d1 m1 d8 k3, PS) | 32 | –
60 | GCCAAGCTTTGTGTCA (sugars k3 d10 k3, PS) | 64 | –
61 | CTAATTTAGTCAACTT (sugars k3 d10 k3, PS) | 40 | –
62 | GTATCTTAAGAGAAGG (sugars k3 d10 k3, PS) | 30 | –
63 | GCAGTTATTAGAAGTC (sugars k3 d9 k3 e1, PS) | 67 | –
64 | TCTAGAATTAAGGGCT (sugars k3 d10 k3, PS) | 45 | –
65 | TTCTATGCAAGCCTTC (sugars k3 d10 k3, PS) | 51 | –
66 | TACAGATTGGAATGCT (sugars kkdddddddddkekek, PS) | 35 | –
